Test results published in patent US20130053337A1, “GUANIDINYLATED AMINOGLYCOSIDE-LIPID CONJUGATES” (UNIVERSITY OF MANITOBA, priority 2010, published 2013).
Converted amounts (≈) assume the structure as drawn. Where two headings read alike, the source gives them in different places.

Columns and labels:
[1] = system: S. aureus ATCC 29213; test: MIC, broth macrodilution (CLSI); type: cell-based, Staphylococcus aureus; conditions: S. aureus ATCC29213
Protocol: (§1) All experiments were performed in duplicate.
(§2) Bacterial isolates studied included both reference strains obtained from the American Type Culture Collection (ATCC) as well as clinical strains obtained from the CAN-ICU study which was a national surveillance study assessing the prevalence of antimicrobial resistant pathogens in Canadian intensive care units (Zhanel et al., 2008). Isolates were kept frozen in skim milk at −80° C. until minimum inhibitory concentration (MIC) testing was carried out. Following two subcultures from frozen stock, the in vitro activities of peptides were determined by macrobroth dilution in accordance with the Clinical and Laboratory Standards Institute (CLSI) 2006 guidelines (Zhanel et al., 2008). Stock solutions of peptides were prepared and dilutions made as described by CLSI. Test tubes contained doubling antimicrobial dilutions of cation adjusted Mueller-Hinton broth and inoculated to achieve a final concentration of approximately 5×10^5 cfu/ml then incubated in ambient air for 24 hours prior to reading. Colony counts were performed periodically to confirm inocula. Quality control was regularly performed using ATCC QC organisms.

[2] = system: P. aeruginosa ATCC 27853; test: MIC, broth macrodilution (CLSI); type: cell-based; conditions: P. aeruginosa ATCC27853
Protocol: as §1, §2

[3] = system: E. coli (amikacin MIC 32 mg/L) CAN-ICU 63074; test: MIC, broth macrodilution (CLSI); type: cell-based; conditions: E. coli CAN-ICU 63074
Protocol: as §1, §2

[4] = system: E. coli (gentamicin-resistant) CAN-ICU 61714; test: MIC, broth macrodilution (CLSI); type: cell-based; conditions: E. coli CAN-ICU 61714
Protocol: as §1, §2

[5] = system: E. coli ATCC 25922; test: MIC, broth macrodilution (CLSI); type: cell-based; conditions: E. coli ATCC25922
Protocol: as §1, §2

[6] = system: P. aeruginosa (gentamicin-resistant) CAN-ICU 62308; test: MIC, broth macrodilution (CLSI); type: cell-based; conditions: P. aeruginosa CAN-ICU 62308
Protocol: as §1, §2

[7] = system: MRSA ATCC 33592; test: MIC, broth macrodilution (CLSI); type: cell-based, methicillin-resistant Staphylococcus aureus; conditions: MRSA ATCC33592
Protocol: as §1, §2

[8] = system: S. epidermidis ATCC 14990; test: MIC, broth macrodilution (CLSI); type: cell-based, Staphylococcus epidermidis; conditions: S. epidermidis ATCC14990
Protocol: as §1, §2

[9] = system: MRSE CAN-ICU 61589; test: MIC, broth macrodilution (CLSI); type: cell-based, methicillin-resistant Staphylococcus epidermidis
Protocol: as §1, §2

[10] = system: S. pneumoniae ATCC 49619; test: MIC, broth macrodilution (CLSI), broth with 5% laked horse blood; type: cell-based, Streptococcus pneumoniae; conditions: S. pneumoniae ATCC49619
Protocol: as §1, §2

[11] = system: sheep red blood cell (erythrocytes); test: Hemolytic assay (in vitro toxicity)
Protocol: Antibacterial activity against Gram-positive and Gram-negative microorganisms was tested via broth macrodilution tests using CLSI methodology (Zhanel et al., 2008). Stock solutions of cationic lipids in water were brought to a concentration of 512 mg/L. Organisms were subcultured and isolated on blood agar, suspended in 3 mL of Mueller-Hinton broth at the turbidity of a […], and diluted to approximately 10^5 cfu/mL before introduction into tubes containing serially diluted lipopeptide antibiotic in Mueller-Hinton broth. Activity testing against S. pneumoniae used broth supplemented with laked horse blood to give 5% horse blood in experimental tubes. Turbidity of lipopeptide solution in broth required creation of control tubes lacking organisms serving as turbidity controls. All tubes were incubated overnight for 16-20 h at 37° C. […] All experiments were performed in duplicate. In-vitro toxicity was determined using a sheep red blood cell hemolytic assay as previously described (Dathe et al., 1996).
In vitro toxicity was determined using a sheep red blood cell (erythrocytes) hemolytic assay (Dathe et al., 1996). […] Erythrocytes were washed and resuspended in Tris buffered saline. The cell suspension was combined with varying concentrations (low to very high) of test and control antimicrobials (e.g., aminoglycosides and APTCs). The samples were centrifuged and the absorbance of the supernatants measured at 540 nm. Tris buffered saline and Triton X were used as negative and positive controls, respectively. The toxicity was assessed by percent hemolysis.

[12] = system: E. faecium ATCC 27270; test: MIC, broth macrodilution (CLSI); type: cell-based, Enterococcus faecium; conditions: E. facium ATCC27270
Protocol: as §1, §2

Compound	MIC [1]	MIC [2]	MIC [3]	MIC [4]	MIC [5]	MIC [6]	MIC [7]	MIC [8]	MIC [9]	MIC [10]	hemolytic activity at 100 mg/L [11]	MIC [12]	hemolytic activity compared to polyamine analogs 3 and 15 [11]	hemolytic activity at 100 mg/L ([11]; 100 mg/L, sheep erythrocytes, percent hemolysis)
CCCCCCCCCCCC(=O)NC[C@H]1O[C@@H](O[C@@H]2[C@@H](O)[C@H](N)C[C@H](N)[C@H]2O[C@H]2O[C@H](CN)[C@@H](O)[C@H](O)[C@H]2N)[C@H](O)[C@@H]1O[C@H]1O[C@@H](CN)[C@@H](O)[C@H](O)[C@H]1N.O=C(O)C(F)(F)F.O=C(O)C(F)(F)F.O=C(O)C(F)(F)F.O=C(O)C(F)(F)F.O=C(O)C(F)(F)F.O=C(O)C(F)(F)F [Compound 2]	32 µg/mL	256 µg/mL	128 µg/mL	64 µg/mL	64 µg/mL	256 µg/mL	>256 µg/mL	4 µg/mL	8 µg/mL	128 µg/mL	–	–	–	–
CCCCCCCCCCCCCCCC(=O)NC[C@H]1O[C@@H](O[C@@H]2[C@@H](O)[C@H](N)C[C@H](N)[C@H]2O[C@H]2O[C@H](CN)[C@@H](O)[C@H](O)[C@H]2N)[C@H](O)[C@@H]1O[C@H]1O[C@@H](CN)[C@@H](O)[C@H](O)[C@H]1N.O=C(O)C(F)(F)F.O=C(O)C(F)(F)F.O=C(O)C(F)(F)F.O=C(O)C(F)(F)F.O=C(O)C(F)(F)F.O=C(O)C(F)(F)F [Compound 3]	4 µg/mL	128 µg/mL	–	64 µg/mL	32 µg/mL	128 µg/mL	8 µg/mL	2 µg/mL	2 µg/mL	64 µg/mL	56%	–	–	–
CCCCCCCCCCCCCCCCCCCC(=O)NC[C@H]1O[C@@H](O[C@@H]2[C@@H](O)[C@H](N)C[C@H](N)[C@H]2O[C@H]2O[C@H](CN)[C@@H](O)[C@H](O)[C@H]2N)[C@H](O)[C@@H]1O[C@H]1O[C@@H](CN)[C@@H](O)[C@H](O)[C@H]1N.O=C(O)C(F)(F)F.O=C(O)C(F)(F)F.O=C(O)C(F)(F)F.O=C(O)C(F)(F)F.O=C(O)C(F)(F)F.O=C(O)C(F)(F)F [Compound 4]	8 µg/mL	128 µg/mL	64 µg/mL	128 µg/mL	128 µg/mL	64 µg/mL	8 µg/mL	4 µg/mL	4 µg/mL	64 µg/mL	82%	–	–	–
CCCCC/C=C\C/C=C\CCCCCCCC(=O)NC[C@H]1O[C@@H](O[C@@H]2[C@@H](O)[C@H](N)C[C@H](N)[C@H]2O[C@H]2O[C@H](CN)[C@@H](O)[C@H](O)[C@H]2N)[C@H](O)[C@@H]1O[C@H]1O[C@@H](CN)[C@@H](O)[C@H](O)[C@H]1N.O=C(O)C(F)(F)F.O=C(O)C(F)(F)F.O=C(O)C(F)(F)F.O=C(O)C(F)(F)F.O=C(O)C(F)(F)F.O=C(O)C(F)(F)F [Compound 5]	16 µg/mL	256 µg/mL	128 µg/mL	64 µg/mL	128 µg/mL	128 µg/mL	32 µg/mL	4 µg/mL	4 µg/mL	128 µg/mL	–	–	–	–
NC[C@@H]1O[C@H](O[C@H]2[C@@H](O)[C@H](O[C@@H]3[C@@H](O)[C@H](N)C[C@H](N)[C@H]3O[C@H]3O[C@H](CN)[C@@H](O)[C@H](O)[C@H]3N)O[C@@H]2CNC(=O)CCCc2ccc3ccc4cccc5ccc2c3c45)[C@H](N)[C@@H](O)[C@@H]1O.O=C(O)C(F)(F)F.O=C(O)C(F)(F)F.O=C(O)C(F)(F)F.O=C(O)C(F)(F)F.O=C(O)C(F)(F)F.O=C(O)C(F)(F)F [Compound 6]	16 µg/mL	>512 µg/mL	64 µg/mL	64 µg/mL	32 µg/mL	256 µg/mL	256 µg/mL	2 µg/mL	64 µg/mL	>512 µg/mL	–	–	–	–
C[C@H](CCC(=O)NC[C@H]1O[C@@H](O[C@@H]2[C@@H](O)[C@H](N)C[C@H](N)[C@H]2O[C@H]2O[C@H](CN)[C@@H](O)[C@H](O)[C@H]2N)[C@H](O)[C@@H]1O[C@H]1O[C@@H](CN)[C@@H](O)[C@H](O)[C@H]1N)[C@H]1CC[C@H]2[C@@H]3[C@H](O)C[C@@H]4C[C@H](O)CC[C@]4(C)[C@H]3C[C@H](O)[C@]12C.O=C(O)C(F)(F)F.O=C(O)C(F)(F)F.O=C(O)C(F)(F)F.O=C(O)C(F)(F)F.O=C(O)C(F)(F)F.O=C(O)C(F)(F)F [Compound 7]	16 µg/mL	>256 µg/mL	64 µg/mL	64 µg/mL	32 µg/mL	128 µg/mL	128 µg/mL	8 µg/mL	16 µg/mL	>256 µg/mL	–	–	–	–
CCCCCC(=O)NCC1OC(OC2C(O)C(NC(=N)N)CC(NC(=N)N)C2OC2OC(CNC(=N)N)C(O)C(O)C2NC(=N)N)C(O)C1OC1OC(CNC(=N)N)C(O)C(O)C1NC(=N)N.O=C(O)C(F)(F)F.O=C(O)C(F)(F)F.O=C(O)C(F)(F)F.O=C(O)C(F)(F)F.O=C(O)C(F)(F)F.O=C(O)C(F)(F)F (stereo not shown) [Compound 8, 1,3,2′,6′,2′″,6′″-Hexaammonium-guanidinyl-5″-deoxy-5″-N-(hexanoyl)-neomycin hexakis(trifluoroacetate)]	128 µg/mL	–	–	–	128 µg/mL	–	–	64 µg/mL	64 µg/mL	>128 µg/mL	–	256 µg/mL	–	–
CC(C)c1cc(C(C)C)c(S(=O)(=O)OCC2OC(OC3C(NC(=O)OC(C)(C)C)CC(NC(=O)OC(C)(C)C)C(OC4OC(CNC(=O)OC(C)(C)C)C(O)C(O)C4O)C3O)C(O)C(NC(=O)OC(C)(C)C)C2O)c(C(C)C)c1 (stereo not shown) [Compound 17, 6″-(2,4,6-Triisopropylbenzenesulfonyl)-1,3,6′,3″-tetra-N-(tert-butoxycarbonyl)kanamycin A]	–	–	–	–	–	–	–	–	–	–	–	–	reduced hemolytic activity	–
NC[C@H]1O[C@H](O[C@H]2[C@H](O)[C@@H](O[C@H]3O[C@H](CO)[C@@H](O)[C@H](N)[C@H]3O)[C@H](N)C[C@@H]2N)[C@H](O)[C@@H](O)[C@@H]1O [Kanamycin A, reference compound]	4 µg/mL (≈ 8.26 µM)	>512 µg/mL	32 µg/mL (≈ 66 µM)	16 µg/mL (≈ 33 µM)	8 µg/mL (≈ 16.5 µM)	>512 µg/mL	>512 µg/mL	2 µg/mL (≈ 4.13 µM)	128 µg/mL (≈ 264 µM)	8 µg/mL (≈ 16.5 µM)	–	–	–	<0.4%
